Measured values as given in article PMC6412051 (Scientific Reports, 2019).

Assays:
[1] = oral administration; cited from earlier work
[2] = Formation/stability constant by continuous variation (Job's) method; assay type: physicochemical; conditions: equimolar solutions in methanol, room temperature
From the text: In Fig. 1, the extrapolated value at the point of cross section on the Job’s curve corresponds to the total absorbance of the complex, if the complex formation had been completed. Since the complex is dissociative in nature, the actual absorbance is somewhat lower than the absorbance […].
The colour of the solution changed from brown to orange. Wavelength of maximum absorbance was noted against a blank, which appeared at 296 nm. All the measurements were made at 296 nm.

Compound | bioavailability [1] | formation constant of the complex (log K) [2]
CCN1CCCC1CNC(=O)c1cc(S(N)(=O)=O)ccc1OC (centres unmarked) [SPR, Sulpiride] | approximately 30% | 
[Ru(p-cymene)Cl(SPR)] |  | 5.45
